Common to all, as to assay: growth of human tumour cells (NCI), 48 h
Experiment [1] relates to HCC-2998 colon.
Experiment [2] has as its system KM12 colon.
Experiment [3] concerns TK-10 renal.
For experiment [4], the system named is IGROV1 ovarian.
The test system of experiment [5] is RPMI-8226 leukemia.
In experiment [6] the test system is MDA-MB-231 breast.
Experiment [7] concerns BT-549 breast.
Experiment [8] deals with HOP-62 NSCLC.
The test system of experiment [9] is OVCAR-3 ovarian.
In experiment [10] the test system is MCF7 breast.

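The compound was tested at five concentrations on cells cultured in 96-well plates, with a 48-hour exposure period. The concentration for 50% growth inhibition is given as GI50. TGI: total growth inhibition.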

Take `CCCCCCCCCCCCC(O)c1ccc(C#CCCCCCCCCCO)o1` (centres undefined): the GI50 was 27.5 µM in experiment [1]; 20.5 µM in experiment [2]; 15.7 µM in experiment [3]; 25.9 µM in experiment [4]; 27.2 µM in [5]; 20.4 µM in experiment [6]. Further, the GI50 in experiment [7] is 21.7 µM; in experiment [8], 20.1 µM; in [9] it was 19.1 µM; in experiment [10], 17.3 µM. Also, the TGI in experiment [1] was determined as 48.2 µM; in experiment [2] it was 39.9 µM; in experiment [3], 30.5 µM; in [4] it was 51.8 µM; in experiment [5], 71.3 µM; in [6] it was 36.2 µM. In addition, the TGI came to 42.3 µM in experiment [7], 35.5 µM in experiment [8], 34 µM in [9] and 42.3 µM in [10].
On to `COc1cccc(C(=O)NC(c2ccc(C)cc2)c2cc(Cl)c3cccnc3c2O)c1` (centres undefined), for which the GI50 was 0.786 µM in experiment [1]; 0.545 µM in experiment [2]; 0.393 µM in experiment [3]; 0.5 µM in experiment [4]; 0.621 µM in experiment [5]; 0.612 µM in experiment [6]. Moreover, the GI50 in [7] is 1.32 µM; in experiment [8], 0.496 µM; in experiment [9], 0.346 µM; in experiment [10], 0.371 µM. The TGI in experiment [1] came to 15.1 µM; in experiment [2] it was 16.8 µM; in experiment [3], 4.8 µM; in [4], 12.4 µM; in experiment [5], 19.1 µM; in experiment [6], 15.4 µM. The TGI in experiment [7] was 18.6 µM; in experiment [8] it was 9.58 µM; in [9], 18.6 µM; in experiment [10], over 30.4 µM.
`Cc1cc(I)cc(CN(CCCN(C)C)C(C)C)c1O`: the GI50 in experiment [1] was 16.5 µM; in experiment [2], 18 µM; in experiment [3], 18.2 µM; in experiment [4], 15.9 µM; in experiment [5], 11.5 µM; in experiment [6], 18.1 µM. The GI50 in [7] is 11.5 µM; in experiment [8], 16.1 µM; in [9], 18.8 µM; in experiment [10], 18.8 µM. Further, the TGI in [1] was 30.6 µM; in experiment [2], 36 µM; in experiment [3], 33.1 µM; in experiment [4], 31.7 µM; in [5] it was 26.7 µM; in [6] it was 43.6 µM. For the same molecule, the TGI is 23.9 µM in [7], 30.6 µM in experiment [8], 34.8 µM in experiment [9] and 36 µM in [10].
Consider `Nc1cc(NN=C(c2ccc(O)cc2)c2ccc(O)cc2)c([N+](=O)[O-])cc1[N+](=O)[O-]`, for which the GI50 is 1.57 µM in experiment [1]; 1.52 µM in [2]; 2.22 µM in experiment [3]; 2.28 µM in experiment [4]; 2.15 µM in [5]; 2.22 µM in [6]. Also, the GI50 in experiment [7] is 2.46 µM; in experiment [8] it was 2.13 µM; in experiment [9] it was 1.81 µM; in experiment [10], 1.56 µM. Further, the TGI in [1] was determined as 3.51 µM; in [2], 2.85 µM; in experiment [3] it was 6.98 µM; in experiment [4], 5.38 µM; in experiment [5], 6.46 µM; in experiment [6], 5.38 µM. Also, the TGI in experiment [7] stood at 6.78 µM; in [8], 3.98 µM; in [9], 4.14 µM; in experiment [10] it was 3.28 µM.
In the case of `CC1SC(c2ccc(F)cc2)N(NC(=O)C(O)c2ccccc2)C1=O` (centres undefined), the GI50 in [1], in experiment [2], in experiment [3], in [4], in experiment [5] and in [6] was over 100 µM throughout. Moreover, the GI50 in experiment [7], in experiment [8], in experiment [9] and in experiment [10] was over 100 µM throughout. The TGI in experiment [1], in experiment [2], in [3], in experiment [4], in experiment [5] and in experiment [6] was over 100 µM in each case. Also, the TGI in experiment [7], in [8], in [9] and in experiment [10] was over 100 µM throughout.
In the case of `Cc1csc(-c2nnc(Nc3ccc(Oc4ncccc4-c4ccnc(N)n4)cc3)c3ccccc23)c1`, the GI50 in [1] is 2.54 µM; in [2] it was 2.41 µM; in [3], over 100 µM; in [4] it was 3.35 µM; in experiment [5], 3.05 µM; in experiment [6], 4.32 µM. For the same molecule, the GI50 was over 100 µM in [7], 4.4 µM in experiment [8] and 0.13 µM in experiment [10]. Besides, the TGI is over 30.2 µM in experiment [1]; over 100 µM in [2]; over 100 µM in experiment [3]; over 100 µM in experiment [4]; over 100 µM in experiment [5]; over 100 µM in experiment [6]. Further, the TGI in experiment [7], in experiment [8], in experiment [9] and in experiment [10] was over 100 µM throughout.
Regarding `COc1ccc2nc3cc(Cl)ccc3c(NCCNCC(C)O)c2c1` (centres undefined), the GI50 was 1.38 µM in [1]; 2.02 µM in [2]; 2.85 µM in experiment [3]; 2.69 µM in experiment [4]; 2.54 µM in experiment [5]; 1.49 µM in experiment [6]. The GI50 in [7] was 7.92 µM; in [8], 1.31 µM; in experiment [9], 2.38 µM; in experiment [10] it was 1.28 µM. Besides, the TGI in experiment [1] came out at 2.94 µM; in [2], 8.74 µM; in [3] it was 8.28 µM; in experiment [4] it was 10.2 µM; in [5], 6.36 µM; in [6] it was 4.28 µM. Also, the TGI was determined as 21.8 µM in experiment [7], 4.09 µM in experiment [8], 8.04 µM in [9] and 5.51 µM in [10].

For the origin of these results see PubChem BioAssay (NCI).
